The nature of data set [1]: Half-life, absorption window and permeability. The following applies: for half-life: human. The class given is in vivo.
Data set [2] can be described thus: 12 week clinical studies in T2DM, once daily and twice daily dosing. It counts as in vivo, human. The source says: To date, studies have assessed the efficacy, safety and tolerability up to 12 weeks, with varying efficacy so there is a need to characterize the profile of a number of selected formulated doses over a 12-week period. […] However to minimize the time which subjects may have sub-optimal glycemic control, the double blind study medication has been limited to 12 weeks duration. In addition, criteria have been included to allow the introduction of rescue therapy after 6 weeks for those subjects who have a high FP. […] Furthermore, there is evidence that at these doses, there may also be clinically relevant weight loss, a key requirement for new T2DM therapies (20). As doses above 250 mg BID may be associated with relatively small incremental benefits on glycemia and weight loss and there is a trend for better tolerability at lower doses, future studies could have total daily doses less than 500 mg per day. […] It is believed that the primary mechanism for this isolated increase in LDL-c is due a combination of 1) hemoconcentration as a result of the diurectic effect, similar to that seen with diuretics (21, 22) and 2) SGLT2 overnight inhibition. […] Further, a combination IR/SR dose given QD in the morning may also provide meaningful benefits on glycemia and weight loss. From a safety perspective, other than small effects observed on the lipid profile and hematocrit, there was little difference in the safety profile based on the frequency of administration.

For data set [3] the following is noted: reduced from 9.0%; at mealtime in combination with a sulfonylurea; P<0.0001; cited from earlier work.

Read-outs that look alike come from different tables or passages of the source.

On to `CCOC(=O)OC[C@H]1O[C@@H](Oc2nn(C(C)C)c(C)c2Cc2ccc(OC(C)C)cc2)[C@H](O)[C@@H](O)[C@@H]1O` [remogliflozin etabonate, 5-methyl-4-[4-(1-methylethoxy)benzyl]-1-(1-methylethyl)-1H-pyrazol-3-yl 6-O-(ethoxycarbonyl)-β-D-glucopyranoside], for which, in data set [1] (in vivo, read-out: half-life (t½) (converted)), the half-life (as a rule, the time needed for the level to fall by half in the phase considered) is 1.5 h. Moreover, the “permeability in the lower portion of the gastrointestinal tract” value in data set [1] (in vivo) was “intrinsically poor permeability”.

In the case of `Cc1c(Cc2ccc(OC(C)C)cc2)c(O[C@@H]2O[C@H](CO)[C@@H](O)[C@H](O)[C@H]2O)nn1C(C)C` [remogliflozin], the LDL-c result in data set [2] (250 mg and 500 mg bid doses) is on record as “significant increases”; in data set [2] (higher QD doses), “no corresponding increases”. Further, the “hematocrit (surrogate marker for hemoconcentration)” value in data set [2] (higher QD doses) is “increases in hematocrit”. Moreover, the hypoglycemic events result in data set [2] (human, in vivo) was “very little evidence”. In addition, the half-life in data set [1] (in vivo, read-out: half-life) is 1.5 to 2 h; in data set [1] (plasma, read-out: half-life (t½) (converted)), 1.5 h. Moreover, the “permeability in the lower portion of the gastrointestinal tract” value in data set [1] (in vivo) was “poor permeability”. Also, the window of absorption in data set [1] (upper gastrointestinal tract, depending upon food intake, individual differences) was 3 to 6 h.

Turning to “insulin lispro: rapid-acting insulin analog”, the A1C levels in data set [3] is recorded as 7.1%.
